Data published in paper PMC2941777 (Molecular pharmaceutics, 2009).
Like-named read-outs stand apart in the source and are kept apart here. Marks after values point to notes of the source that are not given here. One block for each molecule: values may come before it.

Columns and labels:
[1] = tested on: UDP-glucuronosyltransferases (UGT); experiment: in vitro; conditions: Wistar, rat, pH 7.4
Caco-2 cell membranes = conditions: cited from earlier work
[2] = tested on: efflux transporters Mrp2 and Bcrp1; conditions: 50 μM MK-571 and 40 μM dipyridamole in perfusate; after 90 min; p<0.05
[3] = tested on: efflux transporters Mrp2 and Bcrp1; format: in vivo, rat; conditions: 10 μM naringenin
[4] = biological target: efflux transporters Mrp2 and Bcrp1 (Rattus norvegicus, UniProt Q63120); format: in vivo; conditions: ileum; 50 μM MK-571 with 40 μM dipyridamole
[5] = tested on: UDP-glucuronosyltransferases (UGT), rat liver microsomes; experiment: Glucuronidation of naringenin in rat liver microsomes
[6] = tested on: UDP-glucuronosyltransferases (UGT); experiment: Glucuronidation of naringenin in rat colon microsomes; format: in vitro ADME; conditions: Wistar, rat, pH 7.4
[7] = tested on: UDP-glucuronosyltransferases (UGT), rat colon microsomes; experiment: as above; format: in vitro ADME
[8] = format: in vivo, rat; conditions: 10 μM naringenin perfusate
[9] = cited from earlier work
[10] = Steady-state blood concentration after intestinal perfusion; format: in vivo, rat; conditions: tail vein blood after perfusion with 10 μM naringenin for 2.5 h
[11] = tested on: UDP-glucuronosyltransferases (UGT); experiment: Glucuronidation of naringenin in rat ileum microsomes; conditions: Wistar, rat, pH 7.4
[12] = tested on: UDP-glucuronosyltransferases (UGT), rat ileum microsomes; experiment: as above
[13] = tested on: UDP-glucuronosyltransferases (UGT); experiment: Glucuronidation of naringenin in rat jejunum microsomes; conditions: Wistar, rat, pH 7.4
[14] = tested on: UDP-glucuronosyltransferases (UGT), rat jejunum microsomes; experiment: as above
[15] = tested on: UDP-glucuronosyltransferases (UGT); experiment: Glucuronidation of naringenin in rat liver microsomes; conditions: Wistar, rat, pH 7.4

Sequence of efflux transporters Mrp2 and Bcrp1 (Rattus norvegicus, UniProt Q63120) (Q63120 whole entry): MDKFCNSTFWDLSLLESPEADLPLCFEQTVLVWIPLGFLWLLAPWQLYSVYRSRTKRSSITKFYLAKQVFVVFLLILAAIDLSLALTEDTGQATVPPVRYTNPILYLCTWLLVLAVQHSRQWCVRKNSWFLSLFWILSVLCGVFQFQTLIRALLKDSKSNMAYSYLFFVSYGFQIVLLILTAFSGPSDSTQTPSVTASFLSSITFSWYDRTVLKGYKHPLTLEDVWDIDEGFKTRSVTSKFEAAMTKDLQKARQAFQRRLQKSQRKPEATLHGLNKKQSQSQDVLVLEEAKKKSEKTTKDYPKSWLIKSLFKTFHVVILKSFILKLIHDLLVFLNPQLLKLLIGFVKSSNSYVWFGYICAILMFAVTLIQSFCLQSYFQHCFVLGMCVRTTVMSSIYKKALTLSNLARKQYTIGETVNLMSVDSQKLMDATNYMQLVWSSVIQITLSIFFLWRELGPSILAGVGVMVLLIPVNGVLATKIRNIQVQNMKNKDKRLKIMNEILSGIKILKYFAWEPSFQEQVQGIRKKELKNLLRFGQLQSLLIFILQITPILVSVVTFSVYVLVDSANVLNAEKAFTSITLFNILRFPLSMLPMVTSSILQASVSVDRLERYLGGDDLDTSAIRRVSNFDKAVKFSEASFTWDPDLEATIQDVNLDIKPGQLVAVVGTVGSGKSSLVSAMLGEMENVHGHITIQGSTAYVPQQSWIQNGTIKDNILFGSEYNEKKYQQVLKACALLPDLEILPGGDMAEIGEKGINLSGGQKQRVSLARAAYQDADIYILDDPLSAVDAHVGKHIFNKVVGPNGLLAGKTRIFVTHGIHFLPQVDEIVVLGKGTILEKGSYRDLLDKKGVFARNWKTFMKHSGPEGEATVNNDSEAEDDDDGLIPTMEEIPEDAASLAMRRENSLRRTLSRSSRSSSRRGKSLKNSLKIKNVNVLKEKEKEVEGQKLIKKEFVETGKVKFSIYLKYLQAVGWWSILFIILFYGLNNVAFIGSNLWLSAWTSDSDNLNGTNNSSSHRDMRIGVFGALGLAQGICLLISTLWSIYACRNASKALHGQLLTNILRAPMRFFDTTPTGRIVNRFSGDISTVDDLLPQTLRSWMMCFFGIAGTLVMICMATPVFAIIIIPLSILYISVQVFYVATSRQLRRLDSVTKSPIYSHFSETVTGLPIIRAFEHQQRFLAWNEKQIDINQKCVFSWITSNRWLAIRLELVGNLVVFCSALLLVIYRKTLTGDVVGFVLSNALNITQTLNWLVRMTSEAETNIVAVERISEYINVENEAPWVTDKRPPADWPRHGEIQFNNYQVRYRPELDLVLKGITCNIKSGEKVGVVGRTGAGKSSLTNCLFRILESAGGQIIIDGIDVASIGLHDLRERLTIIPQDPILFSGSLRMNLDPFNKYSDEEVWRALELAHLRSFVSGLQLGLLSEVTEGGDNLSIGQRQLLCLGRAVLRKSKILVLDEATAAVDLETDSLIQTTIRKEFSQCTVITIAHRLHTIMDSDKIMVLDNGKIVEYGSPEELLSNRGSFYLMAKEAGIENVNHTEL

SMILES: CN(C)C(=O)CCSC(SCCC(=O)O)c1cccc(/C=C/c2ccc3ccc(Cl)cc3n2)c1 (centres unmarked) [MK-571]
inhibition at 40 min, 50 μM [1]: 50%
permeability across Caco-2 cell membranes (Caco-2 cell membranes): ~1e-05 cm/s
effect on the biliary excretion of aglycone, inhibitors used simultaneously [2]: increased
effect on the absorption of naringenin, two inhibitors used together ([3]; 50 μM MK-571 + 40 μM dipyridamole): did not change
effect on the efflux of glucuronides in duodenum and jejunum, two inhibitors used together ([3]; 50 μM MK-571 + 40 μM dipyridamole, p < 0.05): decreased substantially
effect of inhibitor on the absorption of naringenin ([3]; inhibitor alone (50 μM MK-571 or 40 μM dipyridamole), four regions of intestine): no effect
decrease in dipyridamole-stimulated glucuronide efflux by MK-571 [4]: more than 80%
effect on metabolism rate of naringenin, MK-571 and dipyridamole used together ([5]; 10 μM naringenin, p < 0.05 vs control): decreased significantly

SMILES: OCCN(CCO)c1nc(N2CCCCC2)c2nc(N(CCO)CCO)nc(N3CCCCC3)c2n1 [dipyridamole, Dipyridamole]
permeability across Caco-2 cell membranes (Caco-2 cell membranes): ~1e-05 cm/s

Km [6]: 21.2 µM
R (autoact only), rate of enzyme activity activation [7]: 1.14
Vmax-d (maximum activation of enzyme activity) [7]: 5.49 nmol/min/mg protein
Vmax-o (intrinsic enzyme activity) [7]: 1.08 nmol/min/mg protein
amounts of naringenin absorbed (% of perfused amounts or Mtotal) ([8]; colon): 68%
amounts of naringenin absorbed (% of perfused amounts or Mtotal) ([8]; duodenum): 47%
amounts of naringenin absorbed (% of perfused amounts or Mtotal) ([8]; jejunum): 39%
amounts of naringenin absorbed (% of perfused amounts or Mtotal) ([8]; terminal ileum): 42%
intact naringenin in blood [10]: not detected
Km [11]: 2540 nM
Km [13]: 3.62 µM
R (autoact only), rate of enzyme activity activation [14]: 0.39
Vmax-d (maximum activation of enzyme activity) [14]: 5.53 nmol/min/mg protein
Vmax-o (intrinsic enzyme activity) [14]: 2.00 nmol/min/mg protein
Km [15]: 13.4 µM
R (autoact only), rate of enzyme activity activation [5]: 0.38
Vmax-d (maximum activation of enzyme activity) [5]: 7.40 nmol/min/mg protein
Vmax-o (intrinsic enzyme activity) [5]: 5.83 nmol/min/mg protein
SMILES: O=C1C[C@@H](c2ccc(O)cc2)Oc2cc(O)cc(O)c21 [naringenin, Naringenin]
Vmax ([7]; sum of Vmax-0 and Vmax-d): 6.56* nmol/min/mg protein
bioavailability [9]: less than 10%
Vmax [12]: 1.99* nmol/min/mg protein
Vmax ([14]; sum of Vmax-0 and Vmax-d): 7.53* nmol/min/mg protein
Vmax ([5]; sum of Vmax-0 and Vmax-d): 13.23* nmol/min/mg protein
